How the values were obtained:
[1] = molecular target: dopamine autoreceptor (Rattus norvegicus, UniProt P61169); assay: 3H-quinpirole binding, affinity for the dopamine autoreceptor in homogenized striatal brain tissue
Method: Affinity for the dopamine autoreceptor was established by a modification of the standard experimental test procedure of Seemen and Schaus, European Journal of Pharmacology 203, 105-109 (1991), wherein homogenized rat striatal brain tissue is incubated with ^3H-quinpirole (Quin.)and various concentrations of test compound, filtered and washed and counted in a Betaplate scintillation counter.

[2] = molecular target: T1, dopamine D-2 receptor (Rattus norvegicus, UniProt P61169); assay: 3H-spiroperidol binding, affinity for the dopamine D-2 receptor in homogenized limbic brain tissue; details: for Ratio: ratio IC50 D2 Spiper / IC50 D2 Quin. (LowAg/HighAg), predicts intrinsic activity; for IC50: read-out: IC50 (nM) D2 Spiper
T1 construct: homogenized limbic brain tissue is incubated with ^3H-spiroperidol; from tissue
T1 sequence (P61169 whole entry): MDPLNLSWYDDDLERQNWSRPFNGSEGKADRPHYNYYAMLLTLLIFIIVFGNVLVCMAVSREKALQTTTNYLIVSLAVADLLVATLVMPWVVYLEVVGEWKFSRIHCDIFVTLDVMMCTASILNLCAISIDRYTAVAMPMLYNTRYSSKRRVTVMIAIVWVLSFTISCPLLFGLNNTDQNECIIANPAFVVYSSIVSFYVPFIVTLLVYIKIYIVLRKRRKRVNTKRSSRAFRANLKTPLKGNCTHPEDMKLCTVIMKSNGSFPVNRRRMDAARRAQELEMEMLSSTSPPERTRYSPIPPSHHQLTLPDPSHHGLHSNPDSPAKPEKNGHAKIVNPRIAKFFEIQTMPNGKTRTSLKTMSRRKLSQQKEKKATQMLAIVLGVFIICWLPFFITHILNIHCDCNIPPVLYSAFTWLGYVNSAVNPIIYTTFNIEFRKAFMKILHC

dopamine autoreceptor, sequence (P61169 whole entry): as above

| SMILES | IC50 [1] [nM] | Ratio [2] | IC50 [2] [nM] |
| --- | --- | --- | --- |
| O=C1Cc2c(OCCNCc3cccs3)ccc(Cl)c2N1 [Example 2a, 4-[2-Thien-2-ylmethyl)aminoethoxyl-7-chloro-1,3-dihydro-indol-2-one] | 1.1 | 30.5 | 33.5 |
| O=C1Cc2c(OCCNCc3ccsc3)ccc(F)c2N1 [Example 3a] | 2.53 | 128 | 323 |
| O=C1Cc2c(OCCNCc3ccsc3)ccc(Cl)c2N1 [Example 2b, 4-[2-(Thien-3-ylmethyl)aminoethoxy]-7-chloro 1,3-dihydro-indol-2-one] | 0.71 | 37.7 | 26.7 |
| CSC1C(=O)Nc2c(F)ccc(OCCNCc3ccsc3)c21 (stereo not drawn) [Example 1] | 1.49 | 91 | 135 |
| O=C1Cc2c(OCCNCc3cccs3)ccc(F)c2N1 [Example 3b, 4-[2-(Thien-2-ylmethyl)aminoethoxy]-7-fluoro-1,3-dihydro-indol-2-one] | 1.36 | 293 | 398 |

Reference: patent EP0923576B1, “4-AMINOETHOXY-INDOLONE DERIVATIVES AS DOPAMINE D2 AGONISTS” (Wyeth, priority 1996, dated 1998)
